Measurements reported in patent EP0387830A2, “The anthracycline substances, microorganisms producing the same and a process for preparing the substances” (YAMANOUCHI PHARMACEUTICAL CO. LTD., priority 1989, dated 1990).
≈ marks a conversion by molar mass, not a printed value.

Columns and labels:
P 388 = assay: Cytotoxicity on tumor cells in vitro (trypan blue exclusion, cell growth inhibition); type: cell-based; details: tartrates dissolved in saline, 1 x 10⁵ cells/mℓ, 37 °C for 3 days, RPMI-1640 + 5 % fetus calf serum + 5 µM 2-hydroxyethyldisulfide; for IC50: Mus musculus, P388, 72 h, read-out: IC₅₀ P388
Method: (§1) To each 1 mℓ of L 1210* and P 388** culture medium in a concentration of 1 x 10⁵ cells/mℓ, 4 µℓ of each solution of the tartrates of the anthracycline compounds according to the present invention which was dissolved in saline in different concentrations was added respectively and incubated at 37 °C for 3 days in a CO₂ incubator. Then, numbers of surviving cells were counted by trypan blue exclusion. The cytotoxic activity was determined by calculating the cell growth inhibitory ratio of the numbers of surviving cells to numbers of cells of a control to which no compound was added in the different concentrations and by plotting them on a graph. Note : Medium used: * : RPMI-1640 + 10 % new born calf serum **: RPMI-1640 + 5 % fetus calf serum + 5 µM 2-hydroxyethyldisulfide

[1] = system: P388 adriamycin resistant cell; assay: as above; type: cell-based; details: Mus musculus, P388, 72 h, tartrates dissolved in saline; 37 °C for 3 days; read-out: IC₅₀ P388 adriamycin resistant cell
Method: as §1

[2] = Solubility in solvents (physicochemical properties)
L 1210 = assay: Cytotoxicity on tumor cells in vitro (trypan blue exclusion, cell growth inhibition); type: cell-based; details: tartrates dissolved in saline, 1 x 10⁵ cells/mℓ, 37 °C for 3 days, RPMI-1640 + 10 % new born calf serum
Method: as §1

P-388 tumor cells = assay: Antitumor activity to P388 on animal (prolongation of life); details: for Median survival days: BDFI/SLC male mice, control 13.0; for T/C: ratio of median survival days to control; for Survival rate (after 22 days): survivors - animals in group

| Solubility in solvents ([2]; in hexane) | Solubility in solvents ([2]; in methanol, ethanol, acetone, ethylacetate, benzene, toluene and chloroform) | Solubility in solvents ([2]; in water) | Structure (SMILES) | IC50 (P 388) [µg/mL] | IC50 [1] [µg/mL] | IC50 (L 1210; Mus musculus, L1210, 72 h, read-out: IC₅₀ L1210) [µg/mL] | IC₅₀ L1210 (L 1210) [µg/mL] | IC₅₀ P388 (P 388) [µg/mL] | Median survival days (P-388 tumor cells; 0.50 × 5 mg/kg) [days] | T/C (P-388 tumor cells; 0.50 × 5 mg/kg) [%] | Survival rate (after 22 days) (P-388 tumor cells; 0.50 × 5 mg/kg) | Median survival days (P-388 tumor cells; 1.0 × 5 mg/kg) [days] | T/C (P-388 tumor cells; 1.0 × 5 mg/kg) [%] | Survival rate (after 22 days) (P-388 tumor cells; 1.0 × 5 mg/kg) |
| --- | --- | --- | --- | --- | --- | --- | --- | --- | --- | --- | --- | --- | --- | --- |
| insoluble | soluble | difficult to be dissolved | COc1cccc2c1C(=O)c1c(cc3c(c1O)C(OC1OC(C)C(OC)C(O)C1OC)CC(C)(OC(C)=O)C3OC1OC(C)C(N(C)C)C(C)(O)C1O)C2=O (stereo not drawn) [YL-01641P-C₁] | 0.18 | 0.33 (≈ 0.426 µM) |  |  |  |  |  |  |  |  |  |
|  |  |  | COc1cccc2c1C(=O)c1c(O)c3c(c(O)c1C2=O)C[C@@](O)(C(=O)CO)C[C@@H]3O[C@H]1C[C@H](N)[C@H](O)[C@H](C)O1 [adriamycin] | 0.03 |  | 0.087 | 0.090 | 0.023 |  |  |  |  |  |  |
|  |  |  | CO[C@@]12[C@H](COC(N)=O)C3=C(C(=O)C(C)=C(N)C3=O)N1C[C@@H]1N[C@@H]12 [mitomycin C] |  |  |  |  |  | 22.0 | 169 | 2 - 8 | > 22.0 | > 169 | 8 - 8 |
